How the values were obtained:
Format in all cases: physicochemical
[1] = Non-competitive slurry experiments (solid form stability)
From the text: In addition to the solvent recrystallization experiments, non-competitive slurry experiments were perfoi ined to search for new solid state forms. These experiments rely on solubility differences of different polymorphic forms (if the compound is polymorphic). […] Essentially, when a solid is mixed with solvent as slurry, a saturated solution eventually results. The solution is saturated with respect to the polymorphic form dissolved.
In addition, noncompetitive slurry experiments are often useful in identifying solvents that form solvates with the compound.
The slurry experiments were performed by exposing excess “starting” material (Form A) to neat (single) and binary solvent mixtures and agitating the resulting suspensions for several days at ambient temperature. The solids were vacuum filtered and analyzed by XRD to determine the resulting form. To avoid possible desolvation or physical change after isolation, the samples were not further dried before X-ray analysis.

[2] = Visual solubility measurement in various solvents
Description: About 100 mg of disulfate starting material was placed into each of 26 vials. Solvents were added and the vials were stirred for 30 minutes, followed by visual observation for remaining solids. Additional solvent was incrementally added until the solids were dissolved, or a maximum volume of solvent was added and the experiment was terminated. This solubility data was used in designing experiments, selecting the solvents, anti-solvents for crystallization and slurry experiments, sample consumption, etc.

[3] = Hygroscopicity by dynamic vapor sorption (DVS); settings: for water uptake: 0-55% RH; for water uptake (sorption maximum): 95% RH
Description: Samples were analyzed using an automated dynamic vapor sorption analyzer. The sample (about 1-10 mg) was dried in the instrument 0% RH for 6 hours. The samples were subjected to 0 to 95% RH back to 5% RH at 25° C. in 5% RH steps.
The water content of the as received material was determined by Karl Fischer to be approximately 0.3 wt %. The moisture sorption-desorption isotherms (FIGS. 3A and 3B) were collected using dynamic vapor sorption (DVS) analysis. […] A hydrate may also form near 60% RH.
FIGS. 3A and 3B show the moisture sorption-desorption isotherm and the kinetic plots for Form A. This sample may undergo hydrate formation ≧60% RH, although the shape of the isotherm is less than ideal.
To understand this further a fresh sample of starting material was staged at 60% RH in DVS for about 3 hours allowing sample to gain about 4 wt %. […] FIG. 21.

[4] = Static vapor sorption studies in humidity chambers; settings: for weight gain by TGA: after 40 days
From the text: Static vapor sorption studies were done in hermetic humidity chambers using saturated salts, or environmental humidity chambers to control the temperature and humidity. Data collected during dynamic vapor sorption studies often are not at theiniodynamic equilibrium. To gain a better understanding of the water uptake and the critical humidity level of the API, samples of the starting material (Form A) were monitored in static humidity chambers to allow the sample to equilibrate with aerial moisture.
In these studies, water vapor sorption was determined gravimetrically (or by Thermogravimetric analysis) by storing samples in open aluminum dishes. Samples were stored at 8 different humidities (23, 33, 43, 53, 60, 69, 75 and 84% RH) at ambient temperature. A few hundred milligrams of Form A was staged at each humidity condition.
The samples were examined periodically either by recording the weight change or by monitoring the water content by Karl Fischer or TGA, and/or XRD pattern. […] The samples stored at humidities higher than 60% RH deliquesced after 10 days.

[5] = DVS sorption, 25° C., listed as 2-amino-3-methyl-N-(2-morpholinoethyl)-pentanamide disulfate
[6] = stored at 60% RH, then dried at ~45° C. under vacuum for about 15 days

2-amino-3-methyl-N-(2-morpholinoethyl)-pentanamide disulfate [Form A]
Final Form ([1]; slurry in DMA, 27 days, ambient temperature, by XRD): monosulfate | Final Form ([1]; slurry in DMF/2-propanol (1/1), 19 days): monosulfate | Final Form ([1]; slurry in DMF/2-propanol (1/2), 19 days): monosulfate | Final Form ([1]; slurry in DMF/2-propanol (2/1), 19 days): monosulfate | Final Form ([1]; slurry in DMF/acetone (1/1), 19 days): monosulfate | Final Form ([1]; slurry in DMF/acetone (1/2), 19 days): monosulfate | Final Form ([1]; slurry in DMF/acetone (2/1), 19 days): monosulfate | Final Form ([1]; slurry in DMF/heptane (1/1), 19 days): monosulfate | Final Form ([1]; slurry in DMF/heptane (1/2), 19 days): monosulfate | Final Form ([1]; slurry in DMF/heptane (2/1), 19 days): monosulfate | Final Form ([1]; slurry in water, duration n/a): all dissolved | Approx. Solubility ([2]; 1-butanol): ≦1.67 mg/mL | Approx. Solubility ([2]; 1-propanol): ≦1.67 mg/mL | Approx. Solubility ([2]; 2-butanol): ≦1.67 mg/mL | Approx. Solubility ([2]; 2-propanol): ≦1.67 mg/mL | Approx. Solubility ([2]; acetone): ≦1.67 mg/mL | Approx. Solubility ([2]; acetonitrile): ≦1.67 mg/mL | Approx. Solubility ([2]; butylamine): ≦1.67 mg/mL | Approx. Solubility ([2]; chloroform): ≦1.67 mg/mL | Approx. Solubility ([2]; dichloromethane): ≦1.67 mg/mL | Approx. Solubility ([2]; diisopropylamine): ≦1.67 mg/mL | Approx. Solubility ([2]; dimethylacetamide (DMA)): ≦1.67 mg/mL | Approx. Solubility ([2]; dimethylformamide (DMF)): ~1670 µg/mL | Approx. Solubility ([2]; ethanol): ≧50 mg/mL | Approx. Solubility ([2]; ethyl acetate (EtOAc)): ≦1.67 mg/mL | Approx. Solubility ([2]; heptane): ≦1.67 mg/mL | Approx. Solubility ([2]; isopropyl acetate): ≦1.67 mg/mL | Approx. Solubility ([2]; isopropyl ether): ≦1.67 mg/mL | Approx. Solubility ([2]; methanol, stirred 30 minutes): ≧100 mg/mL | Approx. Solubility ([2]; methyl ethyl ketone (MEK)): ≦1.67 mg/mL | Approx. Solubility ([2]; methyl-t-butyl ether (MTBE)): ≦1.67 mg/mL | Approx. Solubility ([2]; nitromethane): ≦1.67 mg/mL | Approx. Solubility ([2]; pyridine): ≦1.67 mg/mL | Approx. Solubility ([2]; tetrahydrofuran (THF)): ≦1.67 mg/mL | Approx. Solubility ([2]; toluene): ≦1.67 mg/mL | Approx. Solubility ([2]; trifluoroethanol): ≧50 mg/mL | Approx. Solubility ([2]; water): ≧100 mg/mL | water remaining in desorption phase ([3]; DVS desorption, 65% RH, 25° C.): ~23 wt % | mass above original value at end of desorption cycle ([3]; DVS desorption): ~4 wt % | mass above original value at end of desorption cycle ([3]; DVS desorption, listed as 2-amino-3-methyl-N-(2-morpholinoethyl)-pentanamide disulfate): about 4 wt % | water uptake ([3]; DVS sorption, 25° C.): 2 wt % | water uptake [3, 5]: did not sorb much water | water uptake (total) ([3]; DVS sorption, 65% RH, 25° C.): ~23 wt % | water uptake (sorption maximum) ([3]; DVS sorption, 25° C.): approximately 225 wt % | water uptake (sorption maximum) [3, 5]: up to 225 wt % | behaviour at high humidity ([3]; DVS, high humidity, followed by glass formation upon evaporation): Apparent deliquescence | weight gain ([3]; fresh sample staged at 60% RH in DVS for about 3 hours): about 4 wt % | relative humidity at which hydrate forms ([3]; from DVS isotherm, 25° C.): ~60 % RH | weight gain by TGA ([4]; stored at 43% RH): approximately 1.0 wt % | weight gain by TGA ([4]; stored at 53% RH): ~1.3 wt % | state after storage ([4]; stored at 60% RH, after 27 days): mostly deliquesced | weight gain ([4]; stored at 60% RH, in 20 days): approximately 6 wt % | XRD after storage and drying [4, 6]: identical to starting material | weight by TGA after drying [4, 6]: approximately 3.3 wt % | state after storage ([4]; stored at humidities higher than 60% RH, ambient temperature, after 10 days): deliquesced | weight gain ([4]; stored at humidities lower than 43% RH, ambient temperature, after 15 days): minimaUno weight gain

— patent US9884833B2, “Crystalline forms of neurotrophin mimetic compounds and their salts” (Pharmatrophix, Inc., priority 2012, dated 2018)
